Substitutions are numbered along the chain they refer to.
Tests used:
Assay type in all cases: biochemical
Details in all cases: inhibitor at IC50 concentration previously determined for CK1δ WT; DMSO control = 100%; adjusted to WT = 50%; mean ± SD
CK1δ A36V = biological target: T1, CK1δ A36V (Homo sapiens, UniProt P48730, A36V); assay: in vitro kinase assay, CK1δ mutant A36V
T1 sequence (P48730 1-415 A36V): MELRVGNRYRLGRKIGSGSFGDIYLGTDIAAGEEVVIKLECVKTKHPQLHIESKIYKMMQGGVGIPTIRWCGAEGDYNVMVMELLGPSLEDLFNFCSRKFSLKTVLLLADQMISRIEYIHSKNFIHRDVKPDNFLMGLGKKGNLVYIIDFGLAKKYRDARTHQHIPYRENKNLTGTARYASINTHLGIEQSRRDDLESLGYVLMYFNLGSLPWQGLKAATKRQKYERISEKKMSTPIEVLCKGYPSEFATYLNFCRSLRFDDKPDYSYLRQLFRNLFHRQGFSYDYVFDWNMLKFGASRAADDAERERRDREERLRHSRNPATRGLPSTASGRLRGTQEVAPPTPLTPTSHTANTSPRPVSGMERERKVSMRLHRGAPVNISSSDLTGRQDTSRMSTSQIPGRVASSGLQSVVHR
Experimental: (§1) Overexpression and purification of GST-CK1δ fusion proteins, either wild type or mutant, were performed as described previously.
(§2) Each kinase assay reaction was performed in kinase buffer (25 mM Tris-HCl (pH 7.5), 10 μM ATP, 10 mM MgCl2, 100 μM EDTA) in presence of purified GST-CK1δ kinase as source of enzyme (either wild type or mutant), an assay-specific substrate (α-casein, GST-p53^1−64, or GST-β-catenin^1−181), and radiolabeled ATP (2 μCi [γ-^32P]-ATP). For performing Michaelis–Menten analysis increasing substrate concentrations were used (α-casein: 0.39−25 μM; GST-p53^1−64: 0.09−1.87 μM; GST-β-catenin^1−181: 0.07−1.32 μM). For biological evaluation of small molecule inhibitors (SMIs), each inhibitor compound was either tested at 10 μM concentration for initial screening or by using a dilution series (0.005−10 µM) for determination of IC50 values. DMSO was used as control. Reactions were incubated for 30 min at 30 °C and reactions were stopped using 5x SDS-loading buffer (250 mM Tris-HCl [pH 6.8], 25% (v/v) β-mercaptoethanol (MSH), 50% (v/v) glycerol, 10% (w/v) SDS, 0.5% (w/v) bromphenol blue). Subsequently, samples were separated by SDS-PAGE using 12.5% acrylamide gels, stained with Coomassie, and phosphorylated substrates were visualized on X-ray film. Incorporation of radiolabeled phosphate was quantified by scintillation counting of Coomassie-stained substrate bands. Defined dilutions of the reaction master mix were counted as well in order to convert results obtained as counts per minute (CPM) to units of transferred phosphate in pmol/min. Michaelis–Menten analysis was performed using GraphPad Prism 6 (GraphPad Software, San Diego, CA, USA).

CK1δ R127L = biological target: T2, CK1δ R127L (Homo sapiens, UniProt P48730, R127L); assay: in vitro kinase assay, CK1δ mutant R127L
T2 sequence (P48730 1-415 R127L): T1 sequence (P48730 1-415 A36V) with V36A, R127L
Experimental: as §1, §2

CK1δ R127Q = biological target: T3, CK1δ R127Q (Homo sapiens, UniProt P48730, R127Q); assay: in vitro kinase assay, CK1δ mutant R127Q
T3 sequence (P48730 1-415 R127Q): T1 sequence (P48730 1-415 A36V) with V36A, R127Q
Experimental: as §1, §2

CK1δ R168H = biological target: T4, CK1δ R168H (Homo sapiens, UniProt P48730, R168H); assay: in vitro kinase assay, CK1δ mutant R168H
T4 sequence (P48730 1-415 R168H): T1 sequence (P48730 1-415 A36V) with V36A, R168H
Experimental: as §1, §2

CK1δ R299Q = biological target: T5, CK1δ R299Q (Homo sapiens, UniProt P48730, R299Q); assay: in vitro kinase assay, CK1δ mutant R299Q
T5 sequence (P48730 1-415 R299Q): T1 sequence (P48730 1-415 A36V) with V36A, R299Q
Experimental: as §1, §2

| Residual activity of CK1δ A36V (CK1δ A36V) [%] | Residual activity of CK1δ R127L (CK1δ R127L) [%] | Residual activity of CK1δ R127Q (CK1δ R127Q) [%] | Residual activity of CK1δ R168H (CK1δ R168H) [%] | Residual activity of CK1δ R299Q (CK1δ R299Q) [%] | SMILES |
| --- | --- | --- | --- | --- | --- |
| 43 ± 15 | 50 ± 11 | 24 ± 8 | 30 ± 16 | 64 ± 22 | O=C(Nc1nc2ccc(C(F)(F)F)cc2[nH]1)c1csc(NC(=O)c2ccccc2OC(F)(F)F)n1 [Bischof-5] |
| 55 ± 6 | 42 ± 9 | 37 ± 5 | 50 ± 9 | 36 ± 20 | Cc1ccc2nc(NC(=O)CSc3nc4c(c(=O)n3-c3ccccc3)SCC4)sc2c1 [IWP-2] |
| 49 ± 7 | 48 ± 10 | 36 ± 11 | 61 ± 19 | 91 ± 60 | COc1ccccc1-n1c(SCC(=O)Nc2nc3ccc(C)cc3s2)nc2c(c1=O)SCC2 [IWP-4] |

From PMC6941124 (International Journal of Molecular Sciences, 2019)
